# What was measured:
# HEK cells = assay: Speed of optical response to voltage steps in HEK cells; type: cell-based, human; details: 100 mV step from holding potential −60 mV
# Text: Membrane voltage of cells loaded with VF1.4.Cl or VF2.4.Cl were controlled by making tight-seal whole-cell recordings. Cells were maintained at a holding potential of −60 mV and stepped for 50 ms to various depolarizing and hyperpolarizing potentials (FIG. 5A), while simultaneously acquiring epifluorescence images. For both sensors, depolarizing steps result in fluorescence increases while hyperpolarizing steps decrease fluorescence intensity, in keeping with our proposed mechanism. […] For di-4-ANEPPS, typical values are 0.08-0.12% per mV. […] To assess the speed of the optical response to voltage, VF2.4.Cl signals were monitored in response to voltage steps of 100 mV from a holding potential of −60 mV.
# We characterized the voltage sensitivity of all three indicators by making tight-seal whole-cell recordings of HEK293 cells stained with the VF sensors. […] For all three dyes, depolarizing steps produced fluorescence increases, whereas hyperpolarizing steps produced fluorescence decreases, in keeping with the proposed PeT mechanism. The fluorescence response is linear over the range of −100 mV to +100 mV (FIG. 9C), with voltage sensitivities ΔF/F per 100 mV of 20±1% for VF1.4.Cl and 25±1% for VF2.4.Cl. […]
# rat hippocampal neurons = assay: Optical detection of evoked action potentials in cultured hippocampal neurons; type: cell-based
# Description: To assay VF2.4.Cl's utility for monitoring neuronal activity, hippocampal neurons isolated from rats neonates were loaded with 2 μM VF2.4.Cl for 15 minutes, washed twice and imaged. […] Neurons were patched, current clamped, and injected with a small pulse (250-400 pA, 1-5 ms) to induce action potential firing. By using a high speed EMCCD camera, capable of sampling small regions of interest (ROI) at rates of approximately 2 kHz, enabled single trial optical detection of action potentials. An action potential with a total voltage change of ˜130 mV was well resolved optically and gave a ΔF/F of 24% with a signal-to-noise ratio of 16. Smaller spikes were detectable as well, a 100 mV change gave a ΔF/F of 15% with an SNR of 15. The slightly diminished sensitivity in neurons (0.15% per mV in neurons vs 0.25% per mV in HEK cells) can be explained primarily by the heterogeneous nature of the preparation; overlapping, non-excitable membranes loaded with VF2.4.Cl contribute to a non-responsive fluorescent signal which dilutes the responsive fraction.
# To assess whether VF probes can detect action potentials in single trials, we used cultured rat hippocampal neurons. […] We then injected current into a neuron under whole-cell patch-clamp mode to trigger single action potentials and used a high-speed, back-illuminated EMCCD camera to track fast optical signals from VF2.4.Cl, enabling us to resolve action potentials in neurons in single sweeps (FIG. 13B). The optical trace matched the physiology trace and gave about a 20% ΔF/F increase in fluorescence and a 16:1 signal-to-noise ratio (SNR) in a single trial.
# HEK293 cells were cultured in DMEM (CellGrow) supplemented with 10% FBS, 1% penicillin/streptomycin (Invitrogen) and plated on glassbottom culture dishes (35 mm dish, 14 mm microwell with No. 0 coverglass) (MatTek Corporation). Hippocampal neurons were dissected from postnatal day 0 or 1 rat pups and plated on poly-D-lysine-coated glassbottom culture dishes. Neuronal recordings were made 14-28 days in culture.
# Electrophysiological recordings of HEK293 cells and cultured neurons were performed with an Axopatch 200A or 200B amplifier (Molecular Devices) at room temperature. The signals were digitized with Digidata 1332A and recorded with pCLAMP 9 software (Molecular Devices) on a PC. Analysis of electrophysiological data was done with AxoGraph X (AxoGraphX), pCLAMP 9, and/or ClampFit (Molecular Devices). For most experiments the extracellular solution consisted of (in mM) 145 NaCl, 20 glucose, 10 HEPES, 3 KCl, 2 CaCl2, 1 MgCl2 (pH 7.35, 310 mOsm). The intracellular solution contained (in mM) 115 potassium gluconate, 10 BAPTA tetrapotassium salt, 10 HEPES, 5 NaCl, 10 KCl, 2 ATP disodium salt, 0.3 GTP trisodium salt (pH 7.25, 290 mOsm).
# For voltage sensitivity measurements, regions of interest were drawn around clamped cells and the mean fluorescence measured in ImageJ or Slidebook. For HEK cells, background fluorescence was subtracted by measuring the fluorescence where no cells grew. For experiments in neurons, the background fluorescence was not subtracted. In all cases, ΔF/F was calculated by dividing the fluorescence signal by the average fluorescence for a baseline of 10-20 frames prior to stimulation.
compound,measurement,setting,value
"CCCCN(CCCC)c1ccc(/C=C/c2ccc(/C=C/c3ccc(-c4c5cc(Cl)c(=O)cc-5oc5cc(O)c(Cl)cc45)c(S(=O)(=O)O)c3)cc2)cc1 [VF2.4.Cl, 5-(4-(4-(dibutylamino)styryl)styryl)-2-(2,7-dichloro-6-hydroxy-3-oxo-3H-xanthen-9-yl)benzenesulfonic acid]","τoff, optical",HEK cells,147±19 μs
same,"τon, optical",HEK cells,138±14 μs
same,SNR,rat hippocampal neurons; 100 mV change,15
same,ΔF/F for smaller spike,rat hippocampal neurons; 100 mV change,15%
same,signal-to-noise ratio,"rat hippocampal neurons; action potential ~130 mV, single trial",16
same,sensitivity in neurons,rat hippocampal neurons; rat hippocampal neurons,0.15 % per mV
same,ΔF/F increase in fluorescence for evoked action potential,"rat hippocampal neurons; single trial, 2 μM, EMCCD 2 kHz",~20%
same,ΔF/F for action potential,"rat hippocampal neurons; total voltage change ~130 mV, single trial, 2 μM",24%
